Here are results for 30 molecules from US9624170B2, “4-(piperrazin-1-yl)-pyrrolidin-2-one compounds as monoacylglycerol lipase (MAGL) inhibitors” (TAKEDA PHARMACEUTICAL COMPANY LIMITED, priority 2013, dated 2017).

The first assay deals with T1, human MAGL (His-hMAGL) (Homo sapiens, UniProt Q99685).
T1 construct: made in house; host or cells: Escherichia coli BL21(DE3)
T1 sequence (Q99685 1-303): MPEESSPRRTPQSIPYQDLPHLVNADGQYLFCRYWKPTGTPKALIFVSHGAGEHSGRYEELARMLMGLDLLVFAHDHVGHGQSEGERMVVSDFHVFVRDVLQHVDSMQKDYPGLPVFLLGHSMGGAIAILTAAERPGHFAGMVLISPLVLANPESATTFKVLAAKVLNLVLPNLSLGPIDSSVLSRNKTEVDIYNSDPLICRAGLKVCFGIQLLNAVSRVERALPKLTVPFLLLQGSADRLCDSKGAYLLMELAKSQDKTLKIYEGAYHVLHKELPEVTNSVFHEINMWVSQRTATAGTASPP
The experiment in a line: Measurement of MAGL inhibitory activity by mass spectrometry. It is filed as biochemical. Conditions: MAGL inhibitory rate, test compound 10 μM, His-hMAGL, substrate 2-arachidonylglycerol, RapidFire-mass spectrometry. In short, it runs like this:
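His-tagged human MAGL was reacted with 150 μM 2-arachidonylglycerol substrate (stock, added by 5 μL) for 10 min at room temperature, then stopped with formic acid. Arachidonic acid product was quantified by RapidFire–triple-quadrupole MS in negative SRM mode, corrected by arachidonic acid-d8, and converted to percent inhibition.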
A word on the inhibition: it is the relative decrease from the control value, in per cent. With `Cc1nc(C)c(-c2cccc(N3CC(N4CCN(C(=O)c5nccs5)CC4)CC3=O)c2)s1` (stereo not drawn) [Example 258, 1-(3-(2,4-dimethyl-1,3-thiazol-5-yl)phenyl)-4-(4-(1,3-thiazol-2-ylcarbonyl)piperazin-1-yl)pyrrolidin-2-one(optical isomer)], the inhibition at 10 µM amounted to 102%.

In the case of `O=C(c1nccs1)N1CCN(C2CN(c3ccc(Oc4ccccc4)cc3)C(=O)C2O)CC1` (stereo not drawn) [Example 260, 3-Hydroxy-1-(4-phenoxyphenyl)-4-(4-(1,3-thiazol-2-ylcarbonyl)piperazin-1-yl)pyrrolidin-2-one], the inhibition at 10 µM was determined as 84%.

In the case of `O=C(c1nccs1)N1CCN(C2CN(c3ccc(Oc4ccccc4)cc3)C(=O)C2F)CC1` (stereo not drawn) [Example 261, 3-Fluoro-1-(4-phenoxyphenyl)-4-(4-(1,3-thiazol-2-ylcarbonyl)piperazin-1-yl)pyrrolidin-2-one], the inhibition at 10 µM stood at 100%.

`Cc1cc(-c2ccc(N3CC(N4CCN(C(=O)c5nccs5)CC4)CC3=O)cc2)ccn1` (stereo not drawn) [Example 264, 1-(4-(2-methylpyridin-4-yl)phenyl)-4-(4-(1,3-thiazol-2-ylcarbonyl)piperazin-1-yl)pyrrolidin-2-one]: the inhibition at 10 µM came out at 92%.

In the case of `Cc1ccc(-c2ccc(N3CC(N4CCN(C(=O)c5nccs5)CC4)CC3=O)cc2)cn1` (stereo not drawn) [Example 265, 1-(4-(6-methylpyridin-3-yl)phenyl)-4-(4-(1,3-thiazol-2-ylcarbonyl)piperazin-1-yl)pyrrolidin-2-one], the inhibition at 10 µM worked out at 97%.

In the case of `Cc1ccccc1-c1cccc(N2CC(N3CCN(c4ncccn4)CC3)CC2=O)c1` (stereo not drawn) [Example 268, 1-(2′-methylbiphenyl-3-yl)-4-(4-(pyrimidin-2-yl)piperazin-1-yl)pyrrolidin-2-one], the inhibition at 10 µM worked out at 101%.

Consider `O=C1CC(N2CCN(c3ncccn3)CC2)CN1c1cccc(-c2ccccc2Cl)c1` (stereo not drawn) [Example 269, 1-(2′-chlorobiphenyl-3-yl)-4-(4-(pyrimidin-2-yl)piperazin-1-yl)pyrrolidin-2-one], for which the inhibition at 10 µM was 101%.

Regarding `O=C(c1cscn1)N1CCN(C2CC(=O)N(c3ccc4c(ccn4-c4ccc(F)cc4)c3)C2)CC1` (stereo not drawn) [Example 270, 1-(1-(4-fluorophenyl)-1H-indol-5-yl)-4-(4-(1,3-thiazol-4-ylcarbonyl)piperazin-1-yl)pyrrolidin-2-one], the inhibition at 10 µM is 100%.

For the molecule `O=C(c1nccs1)N1CCN([C@@H]2CC(=O)N(c3ccc4c(c3)CCN4c3ncc(C(F)(F)F)cn3)C2)CC1` [Example 271, (4R)-4-(4-(1,3-thiazol-2-ylcarbonyl)piperazin-1-yl)-1-(1-(5-(trifluoromethyl)pyrimidin-2-yl)-2,3-dihydro-1H-indol-5-yl)pyrrolidin-2-one], the inhibition at 10 µM was 101%.

With `Cc1ncnc(C)c1-c1cccc(N2CC(N3CCN(C(=O)c4nccs4)CC3)CC2=O)c1` (stereo not drawn) [Example 273, 1-(3-(4,6-Dimethylpyrimidin-5-yl)phenyl)-4-(4-(1,3-thiazol-2-ylcarbonyl)piperazin-1-yl)pyrrolidin-2-one], the inhibition at 10 µM is 100%.

For `Cc1cccc(-c2ccc(N3CC(N4CCN(C(=O)c5nccs5)CC4)CC3=O)cc2)n1` (stereo not drawn) [Example 274, 1-(4-(6-methylpyridin-2-yl)phenyl)-4-(4-(1,3-thiazol-2-ylcarbonyl)piperazin-1-yl)pyrrolidin-2-one], the inhibition at 10 µM amounted to 96%.

On to `O=C(c1nccs1)N1CCN(C2CC(=O)N(c3cccc(-c4ccc(F)cc4Cl)c3)C2)CC1` (stereo not drawn) [Example 275, 1-(2′-chloro-4′-fluorobiphenyl-3-yl)-4-(4-(1,3-thiazol-2-ylcarbonyl)piperazin-1-yl)pyrrolidin-2-one], for which the inhibition at 10 µM was 103%.

For `O=C(c1nccs1)N1CCN(C2CC(=O)N(c3ccc(F)c(-c4ccc(F)cc4Cl)c3)C2)CC1` (stereo not drawn) [Example 276, 1-(2′-chloro-4′,6-difluorobiphenyl-3-yl)-4-(4-(1,3-thiazol-2-ylcarbonyl)piperazin-1-yl)pyrrolidin-2-one], the inhibition at 10 µM amounted to 102%.

For `O=C(c1nccs1)N1CCN(C2CC(=O)N(c3ccc(F)c(-c4ccccc4Cl)c3)C2)CC1` (stereo not drawn) [Example 277, 1-(2′-chloro-6-fluorobiphenyl-3-yl)-4-(4-(1,3-thiazol-2-ylcarbonyl)piperazin-1-yl)pyrrolidin-2-one], the inhibition at 10 µM was determined as 98%.

`Cc1cc(C)cc(-n2ccc3cc(N4CC(N5CCN(C(=O)c6nccs6)CC5)CC4=O)ccc32)c1` (stereo not drawn) [Example 279, 1-(1-(3,5-dimethylphenyl)-1H-indol-5-yl)-4-(4-(1,3-thiazol-2-ylcarbonyl)piperazin-1-yl)pyrrolidin-2-one]: the inhibition at 10 µM amounted to 101%.

Regarding `O=C(c1nccs1)N1CCN(C2CC(=O)N(c3ccc4c(ccn4-c4cccc(C(F)(F)F)c4)c3)C2)CC1` (stereo not drawn) [Example 280, 4-(4-(1,3-thiazol-2-ylcarbonyl)piperazin-1-yl)-1-(1-(3-(trifluoromethyl)phenyl)-1H-indol-5-yl)pyrrolidin-2-one], the inhibition at 10 µM was determined as 101%.

On to `O=C(c1nccs1)N1CCN(C2CC(=O)N(c3ccc4c(ccn4-c4nccc(C(F)(F)F)n4)c3)C2)CC1` (stereo not drawn) [Example 281, 4-(4-(1,3-thiazol-2-ylcarbonyl)piperazin-1-yl)-1-(1-(4-(trifluoromethyl)pyrimidin-2-yl)-1H-indol-5-yl)pyrrolidin-2-one], for which the inhibition at 10 µM was found to be 99%.

For the molecule `O=C(c1nccs1)N1CCN(C2CC(=O)N(c3cccc(-c4c(F)cc(F)cc4F)c3)C2)CC1` (stereo not drawn) [Example 282, 4-(4-(1,3-thiazol-2-ylcarbonyl)piperazin-1-yl)-1-(2′,4′,6′-trifluorobiphenyl-3-yl)pyrrolidin-2-one], the inhibition at 10 µM was 100%.

As for `O=C(c1nccs1)N1CCN(C2CC(=O)N(c3cccc(-c4ccc(Cl)cc4Cl)c3)C2)CC1` (stereo not drawn) [Example 283, 1-(2′,4′-dichlorobiphenyl-3-yl)-4-(4-(1,3-thiazol-2-ylcarbonyl)piperazin-1-yl)pyrrolidin-2-one], the inhibition at 10 µM stood at 101%.

For `O=C(c1nccs1)N1CCN(C2CC(=O)N(c3cccc(-c4ccc(F)c(Cl)c4)c3)C2)CC1` (stereo not drawn) [Example 284, 1-(3′-chloro-4′-fluorobiphenyl-3-yl)-4-(4-(1,3-thiazol-2-ylcarbonyl)piperazin-1-yl)pyrrolidin-2-one], the inhibition at 10 µM is 101%.

As for `O=C(c1nccs1)N1CCN(C2CC(=O)N(c3cccc(-c4ccccc4-c4ccccc4)c3)C2)CC1` (stereo not drawn) [Example 285, 1-(1,1′:2′,1″-terphenyl-3-yl)-4-(4-(1,3-thiazol-2-ylcarbonyl)piperazin-1-yl)pyrrolidin-2-one], the inhibition at 10 µM worked out at 101%.

Consider `O=C(O)c1ccc(-c2cccc(N3CC(N4CCN(C(=O)c5nccs5)CC4)CC3=O)c2)cc1` (stereo not drawn) [Example 286, 3′-(2-oxo-4-(4-(1,3-thiazol-2-ylcarbonyl)piperazin-1-yl)pyrrolidin-1-yl)biphenyl-4-carboxylic acid], for which the inhibition at 10 µM amounted to 91%.

Turning to `O=C(c1nccs1)N1CCN(C2CC(=O)N(c3cccc(-c4cccc(C(F)(F)F)c4)c3)C2)CC1` (stereo not drawn) [Example 287, 4-(4-(1,3-thiazol-2-ylcarbonyl)piperazin-1-yl)-1-(3′-(trifluoromethyl)biphenyl-3-yl)pyrrolidin-2-one], the inhibition at 10 µM was found to be 103%.

In the case of `O=C(c1nccs1)N1CCN(C2CC(=O)N(c3cccc(-c4ccc(C(F)(F)F)cc4)c3)C2)CC1` (stereo not drawn) [Example 288, 4-(4-(1,3-thiazol-2-ylcarbonyl)piperazin-1-yl)-1-(4′-(trifluoromethyl)biphenyl-3-yl)pyrrolidin-2-one], the inhibition at 10 µM worked out at 97%.

Turning to `CCOc1ccccc1-c1cccc(N2CC(N3CCN(C(=O)c4nccs4)CC3)CC2=O)c1` (stereo not drawn) [Example 289, 1-(2′-ethoxybiphenyl-3-yl)-4-(4-(1,3-thiazol-2-ylcarbonyl)piperazin-1-yl)pyrrolidin-2-one], the inhibition at 10 µM was 103%.

With `O=C(c1nccs1)N1CCN(C2CC(=O)N(c3cccc(-c4ccc(F)c(F)c4)c3)C2)CC1` (stereo not drawn) [Example 290, 1-(3′,4′-difluorophenyl-3-yl)-4-(4-(1,3-thiazol-2-ylcarbonyl)piperazin-1-yl)pyrrolidin-2-one], the inhibition at 10 µM turned out to be 101%.

Regarding `O=C(c1nccs1)N1CCN(C2CC(=O)N(c3cccc(-c4ccccc4Oc4ccccc4)c3)C2)CC1` (stereo not drawn) [Example 291, 1-(2′-phenoxybiphenyl-3-yl)-4-(4-(1,3-thiazol-2-ylcarbonyl)piperazin-1-yl)pyrrolidin-2-one], the inhibition at 10 µM was 104%.

As for `O=C(c1nccs1)N1CCN(C2CC(=O)N(c3cccc(-c4ccc(OC(F)(F)F)cc4)c3)C2)CC1` (stereo not drawn) [Example 292, 4-(4-(1,3-thiazol-2-ylcarbonyl)piperazin-1-yl)-1-(4′-(trifluoromethoxy)biphenyl-3-yl)pyrrolidin-2-one], the inhibition at 10 µM is 93%.

The same assay, now with this note: MAGL inhibitory rate, test compound 10 μM, His-hMAGL, substrate 2-arachidonylglycerol, RapidFire-mass spectrometry; 10 µM.
The % inhibition is the change of the read-out against control, counted positive when it falls. With `O=C(c1nccs1)N1CCN(C2CC(=O)N(c3cccc(-c4cccnc4Cl)c3)C2)CC1` (stereo not drawn) [Example 266, 1-(3-(2-chloropyridin-3-yl)phenyl)-4-(4-(1,3-thiazol-2-ylcarbonyl)piperazin-1-yl)pyrrolidin-2-one(optical isomer)], the “% inhibition at 10 μM” value turned out to be 99%.

As to `O=C1Cc2ccc(-c3cccc(N4CC(N5CCN(C(=O)c6nccs6)CC5)CC4=O)c3)cc2N1` (stereo not drawn) [Example 267, 6-(3-(2-oxo-4-(4-(1,3-thiazol-2-ylcarbonyl)piperazin-1-yl)pyrrolidin-1-yl)phenyl)-1,3-dihydro-2H-indol-2-one(optical isomer)], the “% inhibition at 10 μM” value is reported as 102%.
